Source: PubChem BioAssay (NCI)
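Where inhibition never reached the appropriate level, the endpoint shown equals the highest concentration tested. Otherwise, values were interpolated linearly from a five-concentration, 48-hour dose response in 96-well plates. Here, GI50 denotes the concentration required for 50% inhibition of growth. Definition used: TGI = concentration required for complete inhibition of growth.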

Legend:
Experiment in all cases: NCI anticancer screen, dose series, 48 h
HS 578T breast = test system: HS 578T breast
MCF7 breast = test system: MCF7 breast
OVCAR-4 ovarian = test system: OVCAR-4 ovarian
SW-620 colon = test system: SW-620 colon
KM12 colon = test system: KM12 colon
SF-268 CNS = test system: SF-268 CNS
UACC-257 melanoma = test system: UACC-257 melanoma
NCI-H460 lung = test system: NCI-H460 lung
ACHN renal = test system: ACHN renal
CCRF-CEM leukemia = test system: CCRF-CEM leukemia
RPMI-8226 leukemia = test system: RPMI-8226 leukemia
DU-145 prostate = test system: DU-145 prostate
SF-539 CNS = test system: SF-539 CNS
HOP-92 NSCLC = test system: HOP-92 NSCLC
OVCAR-8 ovarian = test system: OVCAR-8 ovarian
786-0 renal = test system: 786-0 renal
SF-295 CNS = test system: SF-295 CNS
NCI/ADR-RES ovarian = test system: NCI/ADR-RES ovarian
SK-OV-3 ovarian = test system: SK-OV-3 ovarian
MOLT-4 leukemia = test system: MOLT-4 leukemia
UO-31 renal = test system: UO-31 renal
OVCAR-5 ovarian = test system: OVCAR-5 ovarian
COLO 205 colon = test system: COLO 205 colon
K-562 leukemia = test system: K-562 leukemia
NCI-H522 lung = test system: NCI-H522 lung
MDA-MB-231 breast = test system: MDA-MB-231 breast
SNB-19 CNS = test system: SNB-19 CNS
TK-10 renal = test system: TK-10 renal
NCI-H23 lung = test system: NCI-H23 lung
SK-MEL-5 melanoma = test system: SK-MEL-5 melanoma
UACC-62 melanoma = test system: UACC-62 melanoma
HT29 colon = test system: HT29 colon
IGROV1 ovarian = test system: IGROV1 ovarian
LOX IMVI melanoma = test system: LOX IMVI melanoma
MDA-MB-435 = test system: MDA-MB-435
BT-549 breast = test system: BT-549 breast
HCC-2998 colon = test system: HCC-2998 colon
HCT-116 colon = test system: HCT-116 colon
SK-MEL-28 melanoma = test system: SK-MEL-28 melanoma
MALME-3M melanoma = test system: MALME-3M melanoma
NCI-H226 lung = test system: NCI-H226 lung
HCT-15 colon = test system: HCT-15 colon
SK-MEL-2 melanoma = test system: SK-MEL-2 melanoma
CAKI-1 renal = test system: CAKI-1 renal
OVCAR-3 ovarian = test system: OVCAR-3 ovarian
RXF 393 renal = test system: RXF 393 renal
T-47D breast = test system: T-47D breast
A549 NSCLC = test system: A549 NSCLC
SN12C renal = test system: SN12C renal
PC-3 prostate = test system: PC-3 prostate
HOP-62 NSCLC = test system: HOP-62 NSCLC
EKVX NSCLC = test system: EKVX NSCLC
U251 CNS = test system: U251 CNS

O=C(CN(/C=C/C(=O)C(F)(F)F)c1ccc(Cl)cc1)c1ccc(F)cc1
GI50 (HS 578T breast): 4.95 µM
TGI (HS 578T breast): 9.71 µM
GI50 (MCF7 breast): 14 µM
TGI (MCF7 breast): 33.2 µM
GI50 (OVCAR-4 ovarian): 15.5 µM
TGI (OVCAR-4 ovarian): 38 µM
GI50 (SW-620 colon): 15.1 µM
TGI (SW-620 colon): 32.7 µM
GI50 (KM12 colon): 5.61 µM
TGI (KM12 colon): 22.7 µM
GI50 (SF-268 CNS): 12.3 µM
TGI (SF-268 CNS): 30 µM
GI50 (UACC-257 melanoma): 12.8 µM
TGI (UACC-257 melanoma): 29.9 µM
GI50 (NCI-H460 lung): 11.9 µM
TGI (NCI-H460 lung): 26.3 µM
GI50 (ACHN renal): 4.17 µM
TGI (ACHN renal): 27 µM
GI50 (CCRF-CEM leukemia): 3.39 µM
TGI (CCRF-CEM leukemia): 19.8 µM
GI50 (RPMI-8226 leukemia): 10.1 µM
TGI (RPMI-8226 leukemia): 51.3 µM
GI50 (DU-145 prostate): 16.1 µM
TGI (DU-145 prostate): 40.8 µM
GI50 (SF-539 CNS): 18.9 µM
TGI (SF-539 CNS): 37.6 µM
GI50 (HOP-92 NSCLC): 18 µM
TGI (HOP-92 NSCLC): 36.8 µM
GI50 (OVCAR-8 ovarian): 15.2 µM
TGI (OVCAR-8 ovarian): 38.4 µM
GI50 (786-0 renal): 18 µM
TGI (786-0 renal): 42.3 µM
GI50 (SF-295 CNS): 15.2 µM
TGI (SF-295 CNS): 34.1 µM
GI50 (NCI/ADR-RES ovarian): 14.4 µM
TGI (NCI/ADR-RES ovarian): 31.7 µM
GI50 (SK-OV-3 ovarian): 31.5 µM
TGI (SK-OV-3 ovarian): 91.1 µM
GI50 (MOLT-4 leukemia): 5.59 µM
TGI (MOLT-4 leukemia): 28.4 µM
GI50 (UO-31 renal): 10.9 µM
TGI (UO-31 renal): 23.3 µM
GI50 (OVCAR-5 ovarian): 23.6 µM
TGI (OVCAR-5 ovarian): 53.5 µM
GI50 (COLO 205 colon): 17.2 µM
TGI (COLO 205 colon): 46.5 µM
GI50 (K-562 leukemia): 2.69 µM
TGI (K-562 leukemia): 22.2 µM
GI50 (NCI-H522 lung): 3.6 µM
TGI (NCI-H522 lung): 17.4 µM
GI50 (MDA-MB-231 breast): 14.2 µM
TGI (MDA-MB-231 breast): 27.3 µM
GI50 (SNB-19 CNS): 16.2 µM
TGI (SNB-19 CNS): 34.2 µM
GI50 (TK-10 renal): 18.9 µM
TGI (TK-10 renal): 74 µM
GI50 (NCI-H23 lung): 12.9 µM
TGI (NCI-H23 lung): 26.2 µM
GI50 (SK-MEL-5 melanoma): 14.6 µM
TGI (SK-MEL-5 melanoma): 27.8 µM
GI50 (UACC-62 melanoma): 3.04 µM
TGI (UACC-62 melanoma): 15.2 µM
GI50 (HT29 colon): 17.9 µM
TGI (HT29 colon): > 100 µM
GI50 (IGROV1 ovarian): 12.5 µM
TGI (IGROV1 ovarian): 26.2 µM
GI50 (LOX IMVI melanoma): 0.736 µM
TGI (LOX IMVI melanoma): 16.9 µM
GI50 (MDA-MB-435): 12.1 µM
TGI (MDA-MB-435): 32.3 µM
GI50 (BT-549 breast): 15.1 µM
TGI (BT-549 breast): 35.3 µM
GI50 (HCC-2998 colon): 12.9 µM
TGI (HCC-2998 colon): 25.7 µM
GI50 (HCT-116 colon): 14.5 µM
TGI (HCT-116 colon): 52.3 µM
GI50 (SK-MEL-28 melanoma): 16.5 µM
TGI (SK-MEL-28 melanoma): 36.4 µM
GI50 (MALME-3M melanoma): 13.7 µM
TGI (MALME-3M melanoma): 28.9 µM
GI50 (NCI-H226 lung): 16.2 µM
TGI (NCI-H226 lung): 30.7 µM
GI50 (HCT-15 colon): 4.21 µM
TGI (HCT-15 colon): 21.4 µM
GI50 (SK-MEL-2 melanoma): 8.75 µM
TGI (SK-MEL-2 melanoma): 21.4 µM
GI50 (CAKI-1 renal): 10.4 µM
TGI (CAKI-1 renal): 32.7 µM
GI50 (OVCAR-3 ovarian): 13 µM
TGI (OVCAR-3 ovarian): 28.2 µM
GI50 (RXF 393 renal): 42.9 µM
TGI (RXF 393 renal): > 100 µM
GI50 (T-47D breast): 14.9 µM
TGI (T-47D breast): > 100 µM
GI50 (A549 NSCLC): 18.7 µM
TGI (A549 NSCLC): 81.1 µM
GI50 (SN12C renal): 16.1 µM
TGI (SN12C renal): 29.6 µM
GI50 (PC-3 prostate): 11.8 µM
TGI (PC-3 prostate): 25.9 µM
GI50 (HOP-62 NSCLC): 30.3 µM
TGI (HOP-62 NSCLC): > 100 µM
GI50 (EKVX NSCLC): 19.2 µM
TGI (EKVX NSCLC): 43.6 µM
GI50 (U251 CNS): 11 µM
TGI (U251 CNS): 23 µM
